Experimental data reported in PMC8557866, “Novel Small Molecule Growth Inhibitor Affecting Bacterial Outer Membrane Reduces Extraintestinal Pathogenic Escherichia coli (ExPEC) Infection in Avian Model” (Microbiology Spectrum, 2021).
Values after ≈ are worked out from the molar mass of the structure shown.

What was measured:
[1] = tested on: APEC O78; assay: Comparative efficacy of GI-7 and sulfadimethoxine, floor trial; assay type: in vivo, commercial broiler chickens; design: Cumulative lesion score / Mean lesion score in Liver / Mean lesion score in Heart / Mean lesion score in Lung / Mean lesion score in Air sacs: scale not given here
Description: At day 13 (7 dpi), half of the chickens from each group, and at day 42 (slaughter age), 10 chickens from each group were necropsied and lesions and APEC loads were assessed as described above.

[2] = tested on: LptE; assay: Membrane protein SDS-PAGE and LC-MS/MS (emPAI of LptE); assay type: cell-based, Escherichia coli; conditions: GI-7-treated APEC; untreated APEC 13.84
Description: A GI-7-treated culture of APEC O78 was prepared as described above, and the fractions of cytoplasmic and total membrane proteins were prepared using ultracentrifugation as described previously ([80]). […] The gel was stained with Coomassie blue R-250, the bands of ∼21.4 kDa (expected size of LptE) were excised from both untreated and GI-7-treated lanes of the gel, and in-gel digestion was performed as previously described ([81]). LC-MS/MS of the digested samples was performed on the Thermo Scientific Orbitrap Fusion MS instrument equipped with an EASY-Spray source operated in positive ion mode (CCIC, MS&P Facility, OSU). The Thermo Scientific UltiMate 3000 RSLCnano system containing an Acclaim PepMap 100 (75 μm by 2 cm) trap column and Easy-Spray nano separation column (PepMap RSLC C18, […], 100 Å, 75 μm by 150 mm; Thermo Scientific) was used for injection and elution of samples. For the proteomics database search, the E. coli Uniprot protein database with trypsin/P (selected as the enzyme) was used with the fragment mass tolerance set to 0.5 Da. Mascot Daemon (Matrix Science version 2.6.0) and Scaffold Proteome software were used for the MS/MS data analysis. […] The exponentially modified protein abundance index (emPAI) ([82]) was also calculated to compare the LptE levels between untreated and GI-7-treated gel fragments.

[3] = tested on: APEC O78; design: method as in PMID 30333507; conditions: cited from earlier work
[4] = tested on: APEC; assay: LPS analysis in outer membrane of APEC; assay type: cell-based, Escherichia coli; conditions: vs untreated APEC; total carbohydrate assay P < 0.0001
Description: Extracted LPS (normalized based on the OD600 before extraction) was separated on a 4-to-20% gradient SDS-PAGE gel and stained with Coomassie blue R-250 to visualize the LPS levels ([83]). In addition, LPS was also quantitated using a total carbohydrate assay kit (Cell Biolabs, Inc., San Diego, CA) following the manufacturer’s protocol. Two independent experiments with six replicates in each experiment were performed.

[5] = Quantification of residue in chicken tissues (LC-MS); assay type: in vivo, chickens
From the text: Chickens (n = 5/time point) from an experimental set-up as described above for the floor trial were sacrificed at 2 days (day 13; 2 DPLT), 5 days (day 16; 5 DPLT), and 31 days (day 42; 31 DPLT) post-last treatment. […] Tissue samples from chickens treated with SDM were used for comparison. […] Details of the methods are included in the supplemental material.

[6] = tested on: APEC O78; assay: Gene expression analysis by RT-qPCR in GI-7-treated APEC; assay type: cell-based, Escherichia coli; conditions: 4 h treatment, vs untreated APEC
Description: We also quantitated the expression of other genes essential for maintaining OM integrity (bamA, mlaA, lolB, and pbgA) ([21]). […] An APEC O78 culture treated with 1% DMSO was used as a control. Total RNA was extracted using the RNeasy minikit (Qiagen), and 5 μg of purified RNA was used to synthesize cDNA using the RT^2 first strand kit (Qiagen). The RT-qPCR was performed using Maxima SYBR green/ROX qPCR master mix (Thermo Fisher) in a RealPlex^2 Mastercycler (Eppendorf) with a 55°C annealing temperature. The primers (Table S3) were designed using the PrimerQuest tool and obtained from Integrated DNA Technologies (IDT). The data were normalized to the housekeeping gene encoding glyceraldehyde-3-phosphate dehydrogenase (GAPDH), and relative fold changes were calculated using the cycle threshold (ΔΔCT) method ([79]). Two independent experiments were conducted.

[7] = comparative efficacy trial, vs PC
[8] = comparative efficacy, GI-7 60 mg/liter, SDM 495.3 mg/liter, 7 dpi

In the case of `COc1ccc(CNCc2cccc(C(F)(F)F)c2)cc1OCC(O)CN1CCCC1` (centres unmarked) [GI-7], the “Reduction of severity of lesions” value ([1]; 60 mg/liter in drinking water, as given in the abstract) is reported as 29.5%, the “Mortality reduction compared to PC group” value ([1]; GI-7 60 mg/liter, SDM 495.3 mg/liter in drinking water, PC mortality 41.2%) is reported as 14.7% and the “Mean APEC load, Heart” value ([1]; comparative efficacy trial) is reported as 6.1 Log CFU/g tissues. For the same molecule, the “Mean APEC load, Kidney” value ([1]; comparative efficacy trial) was 6.1 Log CFU/g tissues, the “Mean APEC load, Liver” value ([1]; comparative efficacy trial) was 5.7 Log CFU/g tissues and the “Mean APEC load, Lung” value ([1]; comparative efficacy trial) was 6.1 Log CFU/g tissues. For the same molecule, the “log reduction in APEC load, Heart” value [1, 7] was 1.8 Log CFU/g tissues, the “log reduction in APEC load, Kidney” value [1, 7] was 1.6 Log CFU/g tissues and the “log reduction in APEC load, Liver” value [1, 7] was 1.8 Log CFU/g tissues. For the same molecule, the “log reduction in APEC load, Lung” value [1, 7] was 2.0 Log CFU/g tissues, the Cumulative lesion score ([1]; comparative efficacy, 7 dpi) was 9.8 and the “Mean lesion score in Air sacs” value [1, 8] was 3.0. For the same molecule, the “Mean lesion score in Heart” value [1, 8] was 3.2, the “Mean lesion score in Liver” value [1, 8] was 2.3 and the “Mean lesion score in Lung” value [1, 8] was 1.3. The “% reduction in severity, Air sacs lesions” value ([1]; comparative efficacy, vs PC) was 9.9%, the “% reduction in severity, Heart lesions” value ([1]; comparative efficacy, vs PC) was 10.2% and the “% reduction in severity, Liver lesions” value ([1]; comparative efficacy, vs PC) was 7.2%. The “% reduction in severity, Lung lesions” value ([1]; comparative efficacy, vs PC) was 29.5%, the “Effect on body weight gain (BWG) and feed conversion ratio (FCR)” value ([1]; floor trial) was “No significant effect” and the “Overall BWG” value ([1]; floor trial, day 42 minus day 1, NC 2,501.2) was 2,432.4 g. For the same molecule, the “Overall FCR” value ([1]; floor trial, NC 1.45) was 1.45, the Survival of chickens ([1]; floor trial, P < 0.1) was “increased the survival” and the “emPAI of LptE” value [2] was 8.46. For the same molecule, the MIC [3] was 25 µM (≈ 11 µg/mL), the “LPS level in OM of APEC” value [4] was “lower level of LPS” and the “Residue concentration in muscle” value ([5]; 2 DPLT) was 0.04 ± 0.03 ppm/g tissue. The “Residue level in kidney” value ([5]; 2 DPLT) was 0.7 ± 0.6 ppm/g tissue, the “Residue level in liver” value ([5]; 2 DPLT) was 0.5 ± 0.4 ppm/g tissue and the “Residue concentration in muscle” value ([5]; 5 DPLT) was 0.01 ± 0.01 ppm/g tissue. The “Residue level in kidney” value ([5]; 5 DPLT) was 0.3 ± 0.3 ppm/g tissue, the “Residue level in liver” value ([5]; 5 DPLT) was 0.2 ± 0.2 ppm/g tissue and the “Residue concentration in muscle” value ([5]; 31 DPLT) was 0.0 ± 0.0 ppm/g tissue. The “Residue level in kidney” value ([5]; 31 DPLT) was 0.0 ± 0.0 ppm/g tissue, the “Residue level in liver” value ([5]; 31 DPLT) was 0.0 ± 0.0 ppm/g tissue and the “Residues in tissues relative to FDA limits for antibiotics” value ([5]; in vivo) was “below the limits permitted by the Food and Drug Administration”. The “Downregulation of lptD gene expression” value ([6]; ~50% growth inhibition) was 12.90 fold, the “Downregulation of bamA gene expression” value [6] was 7.72 fold and the “Downregulation of lolB gene expression” value [6] was 1.92 fold. The “Downregulation of lptA gene expression” value [6] was 5.13 fold, the “Downregulation of lptC gene expression” value [6] was 4.99 fold and the “Downregulation of lptE gene expression” value [6] was 5.39 fold. The “Downregulation of mlaA gene expression” value [6] was 9.94 fold and the “Downregulation of pbgA gene expression” value [6] was 5.75 fold.
